# Measurements from patent US11274090B2, “P300/CBP HAT inhibitors” (Constellation Pharmaceuticals, Inc., priority 2018, dated 2022).
# Molecular target: p300 HAT domain (residues 1287-1666) (Homo sapiens (Human), UniProt Q09472)
# Test: p300 HAT SPA assay (scintillation proximity assay, acetylation of biotinylated H3(1-21) peptide)
# Format: biochemical
# Conditions: average of at least 2 replicate titrations
# In short: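 Scintillation proximity readout of acetylated biotin-H3(1-21) captured on streptavidin plates after 1.5 hr at RT; enzyme was Ni2+/anion-exchange-purified HAT domain in 20 mM Hepes pH 7.5. Inhibitor IC50s calculated from the data.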
# p300 HAT domain (residues 1287-1666), sequence (Q09472 1287-1666): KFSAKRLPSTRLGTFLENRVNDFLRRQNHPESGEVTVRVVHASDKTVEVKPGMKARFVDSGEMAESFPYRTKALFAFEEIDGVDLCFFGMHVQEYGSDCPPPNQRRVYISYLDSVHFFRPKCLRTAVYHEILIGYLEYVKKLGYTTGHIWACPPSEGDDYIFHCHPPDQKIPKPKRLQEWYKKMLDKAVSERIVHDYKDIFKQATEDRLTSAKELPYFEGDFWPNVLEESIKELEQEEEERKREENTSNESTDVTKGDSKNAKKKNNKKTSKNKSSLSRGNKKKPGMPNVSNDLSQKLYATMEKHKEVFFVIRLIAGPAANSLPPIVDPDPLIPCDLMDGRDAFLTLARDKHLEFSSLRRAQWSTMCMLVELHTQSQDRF
row,Structure (SMILES),IC50 [nM]
1,"CC1CN(C)C(=O)CN1c1ccc(NC(=O)C(NC[C@@H](C)c2ccc(C#N)cc2)c2ccccc2)nc1 (single isomer, unassigned) [125 Isomer 2]",> 2000
2,"CC1C(=O)N(C)CCN1c1ccc(NC(=O)C(NC[C@@H](C)c2ccc(C#N)cc2)c2ccccc2)nc1 (single isomer, unassigned) [126 Isomer 2]",> 2000
3,"CC1C(=O)N(C)CCN1c1ccc(NC(=O)C(NC[C@@H](C)c2ccc(C#N)cc2)c2ccccc2)nc1 (single isomer, unassigned) [126 Isomer 3]",> 2000
4,"CC(CNC(C(=O)Nc1ccc(-c2cnn(C)c2)cn1)c1cnn(C)c1)c1ccc(C#N)cc1 (single isomer, unassigned) [127 Isomer 1]",> 2000
5,"CC(CNC(C(=O)Nc1ccc(-c2cnn(C)c2)cn1)c1cnn(C)c1)c1ccc(C#N)cc1 (single isomer, unassigned) [127 Isomer 2]",> 2000
6,"CC(CNC(C(=O)Nc1ccc(-c2cnn(C)c2)cn1)c1cnn(C)c1)c1ccc(C#N)cc1 (single isomer, unassigned) [127 Isomer 3]",> 2000
7,"CC(CNC(C(=O)Nc1ccc(-c2cnn(C(F)F)c2)cn1)c1cnn(C)c1)c1ccc(C#N)cc1 (single isomer, unassigned) [128 Isomer 2]",> 2000
8,"CC(CNC(C(=O)Nc1ccc(-c2cnn(C(F)F)c2)cn1)c1cnn(C)c1)c1ccc(C#N)cc1 (single isomer, unassigned) [128 Isomer 3]",> 2000
9,"Cc1nn(C)c(C)c1-c1ccc(NC(=O)C(NC[C@@H](C)c2ccc(C#N)cc2)c2ccccc2)nc1 (single isomer, unassigned) [130 Isomer 1]",< 2000
10,"C[C@H](CNC(C(=O)Nc1ccc(-c2ccc(=O)n(C)n2)cn1)c1ccccc1)c1ccc(C#N)cc1 (single isomer, unassigned) [134 Isomer 1]",> 2000
11,"CC(CNC(C(=O)Nc1ccc(N2CCN(C)C(=O)C2)cn1)c1cnn(C)c1)c1ccc(C#N)cc1 (single isomer, unassigned) [136 Isomer 1]",> 2000
12,"CC(CNC(C(=O)Nc1ccc(N2CCN(C)C(=O)C2)cn1)c1cnn(C)c1)c1ccc(C#N)cc1 (single isomer, unassigned) [136 Isomer 2]",> 2000
13,"CC(CNC(C(=O)Nc1ccc(N2CCN(C)C(=O)C2)cn1)c1cnn(C)c1)c1ccc(C#N)cc1 (single isomer, unassigned) [136 Isomer 4]",> 2000
14,"C[C@H](CNC(C(=O)Nc1ccc(-c2cnn(C)c(=O)c2)cn1)c1ccccc1)c1ccc(C#N)cc1 (single isomer, unassigned) [139 Isomer 2]",> 2000
15,"Cn1cc(-c2ccc(NC(=O)C(NCCc3ccc(C(F)(F)F)nc3)c3ccccc3)nc2)cn1 (single isomer, unassigned) [140 Isomer 2]",> 2000
16,"Cc1ccc(CCNC(C(=O)Nc2ccc(-c3cnn(C)c3)cn2)c2ccccc2)cn1 (single isomer, unassigned) [141 Isomer 2]",> 2000
17,"Cn1cc(-c2ccc(NC(=O)C(NCCc3ccc(C#N)cn3)c3ccccc3)nc2)cn1 (single isomer, unassigned) [142 Isomer 1]",> 2000
18,"Cc1ccc(C(C)CNC(C(=O)Nc2ccc(-c3cnn(C)c3)cn2)c2ccccc2)cn1 (single isomer, unassigned) [143 Isomer 1]",> 2000
19,"Cc1ccc(C(C)CNC(C(=O)Nc2ccc(-c3cnn(C)c3)cn2)c2ccccc2)cn1 (single isomer, unassigned) [143 Isomer 3]",> 2000
20,"Cn1cc(-c2ccc(NC(=O)C(NCCn3cc(C#N)cn3)c3ccccc3)nc2)cn1 (single isomer, unassigned) [144 Isomer 1]",> 2000
21,"Cc1cc(C#N)nn1CCNC(C(=O)Nc1ccc(-c2cnn(C)c2)cn1)c1ccccc1 (single isomer, unassigned) [145 Isomer 2]",> 2000
22,"C[C@H](CNC(C(=O)Nc1ccc(-c2cnn(CC(N)=O)c2)cn1)c1ccccc1)c1ccc(C#N)cc1 (single isomer, unassigned) [147 Isomer 1]",1880
23,"Cn1cc(-c2ccc(NC(=O)C(NCC(c3ccc(C#N)cc3)C(F)(F)F)c3ccccc3)nc2)cn1 (single isomer, unassigned) [149 Isomer 1]",> 2000
24,"Cn1cc(-c2ccc(NC(=O)C(NCC(c3ccc(C#N)cc3)C(F)(F)F)c3ccccc3)nc2)cn1 (single isomer, unassigned) [149 Isomer 4]",> 2000
25,"Cc1ncc(C(C)CNC(C(=O)Nc2ccc(-c3cnn(C)c3)cn2)c2ccccc2)cn1 (single isomer, unassigned) [150 Isomer 1]",> 2000
26,"Cc1ncc(C(C)CNC(C(=O)Nc2ccc(-c3cnn(C)c3)cn2)c2ccccc2)cn1 (single isomer, unassigned) [150 Isomer 2]",> 2000
27,"Cc1ncc(C(C)CNC(C(=O)Nc2ccc(-c3cnn(C)c3)cn2)c2ccccc2)cn1 (single isomer, unassigned) [150 Isomer 3]",> 2000

# Results, then the compound that gave them:
row,IC50 [nM],Structure (SMILES)
1,768,"CC1CN(c2ccc(NC(=O)C(NC[C@@H](C)c3ccc(C#N)cc3)c3ccccc3)nc2)CC(=O)N1C (single isomer, unassigned) [124 Isomer 2]"
2,1650,"CC1CN(C)C(=O)CN1c1ccc(NC(=O)C(NC[C@@H](C)c2ccc(C#N)cc2)c2ccccc2)nc1 (single isomer, unassigned) [125 Isomer 1]"
3,17.4,"CC1CN(C)C(=O)CN1c1ccc(NC(=O)C(NC[C@@H](C)c2ccc(C#N)cc2)c2ccccc2)nc1 (single isomer, unassigned) [125 Isomer 3]"
4,19.6,"CC1CN(C)C(=O)CN1c1ccc(NC(=O)C(NC[C@@H](C)c2ccc(C#N)cc2)c2ccccc2)nc1 (single isomer, unassigned) [125 Isomer 4]"
5,21.1,"CC1C(=O)N(C)CCN1c1ccc(NC(=O)C(NC[C@@H](C)c2ccc(C#N)cc2)c2ccccc2)nc1 (single isomer, unassigned) [126 Isomer 1]"
6,22,"CC1C(=O)N(C)CCN1c1ccc(NC(=O)C(NC[C@@H](C)c2ccc(C#N)cc2)c2ccccc2)nc1 (single isomer, unassigned) [126 Isomer 4]"
7,572,"CC(CNC(C(=O)Nc1ccc(-c2cnn(C(F)F)c2)cn1)c1cnn(C)c1)c1ccc(C#N)cc1 (single isomer, unassigned) [128 Isomer 1]"
8,75.4,"C[C@H](CNC(C(=O)Nc1ccc(-c2cnn(C)c2)cn1)c1cncc(F)c1)c1ccc(C#N)cc1 (single isomer, unassigned) [129 Isomer 1]"
9,20.2,"C[C@H](CNC(C(=O)Nc1ccc(-c2cnn(C)c2)cn1)c1cncc(F)c1)c1ccc(C#N)cc1 (single isomer, unassigned) [129 Isomer 2]"
10,367,"Cc1noc(C)c1-c1ccc(NC(=O)C(NC[C@@H](C)c2ccc(C#N)cc2)c2ccccc2)nc1 (single isomer, unassigned) [131 Isomer 1]"
11,38,"Cc1noc(C)c1-c1ccc(NC(=O)C(NC[C@@H](C)c2ccc(C#N)cc2)c2ccccc2)nc1 (single isomer, unassigned) [131 Isomer 2]"
12,932,"C[C@H](CNC(C(=O)Nc1ccc(-c2cnn(CC(=O)N3CCCC3)c2)cn1)c1ccccc1)c1ccc(C#N)cc1 (single isomer, unassigned) [132 Isomer 1]"
13,1230,"Cc1n[nH]c(C)c1-c1ccc(NC(=O)C(NC[C@@H](C)c2ccc(C#N)cc2)c2ccccc2)nc1 (single isomer, unassigned) [133 Isomer 1]"
14,855,"CC(=O)N1CCN(c2ccc(NC(=O)C(NC[C@@H](C)c3ccc(C#N)cc3)c3cccc(F)c3)nc2)CC1 (single isomer, unassigned) [135 Isomer 1]"
15,783,"C[C@H](CNC(C(=O)Nc1ccc(N2CCN(C)C(=O)C2)cn1)c1cccc(F)c1)c1ccc(C#N)cc1 (single isomer, unassigned) [137 Isomer 1]"
16,435,"C[C@H](CNC(C(=O)Nc1ccc(-c2cnn(CC(=O)N(C)C)c2)cn1)c1cccc(F)c1)c1ccc(C#N)cc1 (single isomer, unassigned) [138 Isomer 1]"
17,153,"Cn1cc(-c2ccc(NC(=O)C(NCCc3ccc(C(F)(F)F)nc3)c3ccccc3)nc2)cn1 (single isomer, unassigned) [140 Isomer 1]"
18,95.1,"Cc1ccc(CCNC(C(=O)Nc2ccc(-c3cnn(C)c3)cn2)c2ccccc2)cn1 (single isomer, unassigned) [141 Isomer 1]"
19,210,"Cn1cc(-c2ccc(NC(=O)C(NCCc3ccc(C#N)cn3)c3ccccc3)nc2)cn1 (single isomer, unassigned) [142 Isomer 2]"
20,171,"Cc1ccc(C(C)CNC(C(=O)Nc2ccc(-c3cnn(C)c3)cn2)c2ccccc2)cn1 (single isomer, unassigned) [143 Isomer 4]"
21,1070,"Cn1cc(-c2ccc(NC(=O)C(NCCn3cc(C#N)cn3)c3ccccc3)nc2)cn1 (single isomer, unassigned) [144 Isomer 2]"
22,783,"Cc1cc(C#N)nn1CCNC(C(=O)Nc1ccc(-c2cnn(C)c2)cn1)c1ccccc1 (single isomer, unassigned) [145 Isomer 1]"
23,993,"CNC(=O)Cn1cc(-c2ccc(NC(=O)C(NC[C@@H](C)c3ccc(C#N)cc3)c3ccccc3)nc2)cn1 (single isomer, unassigned) [146 Isomer 1]"
24,7.76,"CNC(=O)Cn1cc(-c2ccc(NC(=O)C(NC[C@@H](C)c3ccc(C#N)cc3)c3ccccc3)nc2)cn1 (single isomer, unassigned) [146 Isomer 2]"
25,6.16,"C[C@H](CNC(C(=O)Nc1ccc(-c2cnn(CC(N)=O)c2)cn1)c1ccccc1)c1ccc(C#N)cc1 (single isomer, unassigned) [147 Isomer 2]"
26,140,"Cn1cc(-c2ccc(NC(=O)C(NCCc3ccc(Cl)cc3)c3cnn(C)c3)nc2)cn1 (single isomer, unassigned) [148 Isomer 2]"
27,647,"Cn1cc(-c2ccc(NC(=O)C(NCC(c3ccc(C#N)cc3)C(F)(F)F)c3ccccc3)nc2)cn1 (single isomer, unassigned) [149 Isomer 3]"
28,622,"Cc1ncc(C(C)CNC(C(=O)Nc2ccc(-c3cnn(C)c3)cn2)c2ccccc2)cn1 (single isomer, unassigned) [150 Isomer 4]"
